Test results published in ChEMBL document CHEMBL1123682, “5-Amino-4-(diazoacetyl)-1-beta-D-ribofuranosylimidazole, a new antileukemic agent” (J Med Chem, 1987).
pIC50: −log10 of the molar value.

Legend:
L1210 = assay: Ability to inhibit growth of L1210 cells in culture was determined.; format: functional, cell-based; details: Mus musculus, read-out: I50
HEp-2 = assay: Ability to inhibit growth of human epithelial (H.Ep.-2) cells in culture; format: functional, cell-based; details: read-out: I50

| Compound | pIC50 (L1210) | pIC50 (HEp-2) |
| --- | --- | --- |
| [N-]=[N+]=CC(=O)C1=NNC([C@@H]2O[C@H](CO)[C@@H](O)[C@H]2O)C1=N (stereo partly drawn) | 5.52 | 5.70 |
| CC(=O)c1ncn([C@@H]2O[C@H](CO)[C@@H](O)[C@H]2O)c1N | < 3.92 | – |
